PMC8302598, “Rapid discovery of self-assembling peptides with one-bead one-compound peptide library” (Nature Communications, 2021)
“Also recorded” adds a separate entry of the source.

Experiments:
Format in all cases: physicochemical
[1] = Fluorescent-activation screening assay on OBOC beads (NBD); details: for Bead fluorescence in methanol: NBD N-capped peptide on TentaGel S beads, 20 min; for Fluorescence (beads): peptide N-terminally capped with NBD on TentaGel S beads, in water, fluorescence microscope
Description: It is well known that Aβ16–20 peptide sequence KLVFF can self-assemble into nanofibers in water. We, therefore, chose it as a model peptide to test our screening strategy and used KAAGG as the non-assembling negative control. These control peptides, N-terminally capped with NBD were synthesized with standard Fmoc-chemistry, and TentaGel S resin beads as solid support but without any cleavable linker. After side-chain deprotection, the beads were thoroughly washed with DMF, which was replaced stepwise with water or methanol and then examined under a fluorescent microscope. […] This is expected as the hydrophobicity-sensitive fluorescence dye NBD would fluoresce brightly under hydrophobic condition, in this case, methanol. In water, we expect fluorescent signal emitted from non-sequestered NBD to diminish, unless it is buried inside a hydrophobic environment such as within peptide aggregates or β-sheets formed by KLVFF peptides.
(§1) Once the screening method has been validated with our model KLVFF peptide, a totally random pentapeptide library with 19[5] permutations (cysteine was omitted from the library) was constructed using our previously published methods (Supplementary Fig. 3)[23]. Again, TentaGel S resin (loading of 0.31 mmol/g) was used as the solid support. The pentapeptides in the library were N-terminally capped with NBD. […] The positive bead with an intense fluorescent signal (pointed with a solid arrow) was noted. The rest of the beads were considered negative or weak positive beads. From a total of approximately 100 000 beads screened, we selected a total of eight strongest fluorescent positive beads and four dark beads as negative beads. The peptides were then resynthesized in soluble form and purified by high-performance liquid chromatography (HPLC) for testing (Supplementary Figs. 4–12). The amino acid sequences of the eight self-assembling pentapeptides are FTISD, ITSVV, YFTEF, ISDNL, LDFPI, FAGFT, FGFDP, and FFVDF. Not unexpectedly, of the 40 amino acids in these eight pentapeptides, 50% are hydrophobic residues, predominated by Phe (11 Phe, 4 Ile, 3 Val, and 2 Leu). For the remaining 20 amino acids, six are acidic residues (5 Asp and 1 Glu) and seven are neutral and hydrophilic (4 Thr and 3 Ser). The rest are 2 Pro, 2 Gly, 1 Tyr, 1 Asn, and 1 Ala. All eight peptides have at least two hydrophobic residues. Six out of the eight peptides have one negatively charged residue (Asp or Glu). The remaining two peptides are neutral. […] For the Pro containing pentapeptides, LDFPI and FGFDP, the Pro residue, which promotes peptide turns, resides at the fourth and fifth positions, but not in the middle. Not unexpectedly, all the four randomly selected negative non-assembling peptides (RITTR, PLVKA, PFTTR, and QIMRW) have very different sequences, and contain at least one positive charged amino acid.
The OBOC pentapeptide libraries (19[5]) were built using Fmoc strategy SPPS (solid-phase peptide synthesis) (Supplementary Fig. 3). TentaGel S Resin (named N-beads with loading 0.31 mmol/g) was used as the solid phase support. The pentapeptide sequence of X1 X2 X3 X4 X5 was constructed in the library, in which X1−X5 represents either Ala, Asp, Glu, Phe, Gly, His, Ile, Lys, Leu, Met, Asn, Pro, Gln, Arg, Ser, Thr, Val, Trp, and Tyr residues. During the synthesis of OBOC library, solid support beads were mixed and split equally in each cycle, then different amino acids were added, separately, the process was repeated four times. The synthesis of peptides was used anhydrous DMF as solvent. The Fmoc group was removed by 20% (v/v) piperidine in DMF and the deprotection time was 10 min twice. During the coupling step, the HBTU (4 mM) and Fmoc-amino acid (4 mM) were dissolved in DMF containing NMM (0.4 mM). The coupling time was 50 min. Qualitative Fmoc deprotection and coupling were confirmed by ninhydrin test. All the above experiments were carried out in the solid phase peptide synthesis vessels with sieves in it. […]

[2] = Self-assembly of resynthesized soluble pentapeptides; details: self-assembly under aqueous environment
Description: as §1
To estimate the propensity of the identified peptides to self-assemble, the critical micelle concentrations (CMC) of the eight positive peptides and four negative peptides were determined, and the results are shown in Table 1 and Supplementary Figs. 13, 14. The CMC of all the eight positive peptides were detectable and found to range between 8.4 and 14.8 μM, indicating the propensity for these peptides to self-assemble under aqueous environment. […] Hydrophobicity of peptides can be predicted by the value of GRAVY[28] with more negative value for more hydrophilic peptides. Of the four negative assembling peptides, two have a negative GRAVY value. […] Experimental testing, such as the screening strategy described in this work, is needed. This is because multiple factors, including hydrophobicity, hydrogen-bonding, electrostatic interactions, and positions of each residue within the peptides, all contribute to the assembling and final morphology of the self-assembled nano-structure. […]

[3] = TEM morphology and size of peptide nano-assemblies over time; details: same peptide preparation in water with 1% DMSO
Description: Self-assembling peptides with good biocompatibility may be used to construct nanocarriers for drug delivery. We recently reported the use of FFVLK, the reverse sequence of KLVFF, as a self-aggregating β-sheet forming domain for the delivery of HER2 targeting peptides for successful treatment of breast cancer in xenograft models. Such FFVLK containing peptide is able to self-assemble into nanoparticles. Upon intravenous administration, the FFVLK-nanoparticle was able to transform into nanofibrillar network when encountering HER2 at the tumor sites. To investigate the morphology of the nano-assembly formed by the eight self-assembling peptides, we dissolved each of these peptides in DMSO (5 mM) and then diluted them 100X with water at a final peptide concentration of 50 μM to induce spontaneous self-assembly. Each sample was fixed immediately after peptide solution preparation and at 4 h time point for subsequent TEM processing and analysis. As clearly shown in Fig. 4a, all eight self-assembling peptides initially formed some nanostructures: nanoparticles for ITSVV, YFTEF, ISDNL, LDFPI, FAGFT, FGFDP, and FTISD; nanofibers for FFVDF. […] LDFPI (8 nm) maintained the particulate morphology without changing of diameter in 4 h. FFVDF formed nanofibers at 0 and 4 h. […] Time-dependent size variations of pentapeptides in water were further confirmed by DLS spectra (Supplementary Fig. 18). The initial diameters of nanoparticles formed by seven pentapeptides were larger than that observed by TEM, probably due to hydration radius. The size of the nanostructure increased over time, correlating well with the morphologic transformation. […] Circular dichroism (CD) was used to monitor the secondary structures of the nano-assembly of the eight self-assembling peptides over time (Supplementary Fig. 20).
(§2) Pentapeptides monomers were dissolved in DMSO at a concentration of 5.0 mM, followed by quick injection into water at a volume ratio of 1:99 for DMSO and H2O to obtain the nanomaterials solution (50 μM). For 30 mM pentapeptide solution, the pentapeptide was dissolved in water and sonicated for 3 min.
(§3) The pentapeptide solution with the concentration of 20 μM (10 μL) was placed dropwise onto a copper mesh for 5 min, then most of the liquid was removed through a filter paper. Ten microliters of uranyl acetate solution were employed to stain the samples for 5 min, followed by drying the spare liquid with the filter. Finally, the copper mesh was washed with 10 μL of deionized water, which was blotted after staining and drying at room temperature. All of the samples were observed by TEM (Tecnai G2 20 S-TWIN) at an accelerating voltage of 200 kV.

[4] = Appearance and TEM of 30 mM peptide in water
Procedure: To further characterize these self-assembling peptides, we selected two positive peptides (FFVDF and YFTEF) and a negative control peptide (PFTTR) for the following studies: Fourier transform infrared (FT-IR) spectroscopy, UV−Vis spectra, and transmission electron microscopy (TEM).
as §2, §3

[5] = Turbidity test (transmittance spectra); details: 20 μM peptide in water
Procedure: To further confirm the peptide assembling in water, the solutions of pentapeptide were diluted to 20 μM for turbidity test.

[6] = Fluorescent-activation screening assay on OBOC beads (NBD); details: peptide beads incubated with free dye in water for 2 hours

Substance	Fluorescence (beads) [1]	Assembly [2]	Nanostructures detected by TEM (negative controls) [3]	other results
(NBD)-KLVFF-beads [positive control: Aβ16–20 peptide KLVFF N-terminally capped with NBD on TentaGel S resin beads, reference compound]	fluoresced brightly; also recorded: fluorescence-on			Bead fluorescence in methanol [1]: bright fluorescence
PFTTR [randomly selected negative non-assembling pentapeptide]	Off	No	no nanostructures were detected	Nanostructure under TEM ([4]; 30 mM in H2O): no nanostructures observed; Appearance of peptide in water ([4]; 30 mM in water, sonicated 3 min): completely clear solution; Transmittance at 400 nm [5]: 100%
PLVKA [randomly selected negative non-assembling pentapeptide]	Off	No	no nanostructures were detected	
QIMRW [randomly selected negative non-assembling pentapeptide]	Off	No	no nanostructures were detected	
(NBD)-LIVGD-beads [additional positive control LIVGD N-capped with NBD on beads, reference compound]	fluorescence-on			
RITWI [randomly selected negative non-assembling pentapeptide]	Off	No	no nanostructures were detected	
(NBD)-KAAGG-beads [non-assembling negative control KAAGG N-terminally capped with NBD on TentaGel S resin beads, reference compound]	did not			Bead fluorescence in methanol [1]: bright fluorescence
(NBD)-NFGAIL-beads [additional positive control NFGAIL N-capped with NBD on beads, reference compound]	fluorescence-on			
KAAGG-beads [negative control peptide KAAGG on beads, probed with free reporter dye]				Bead fluorescence with free dye (ThT, Nile Red or NBD) [6]: fluorescent off
